Test results: PMC11293026, “Light-activated azobenzene peptide inhibitor of the PD-1/PD-L1 interaction” (Chemical Communications (Cambridge, England), 2024)
Entries after “also recorded” stand apart in the source; their conditions may differ. *1 amine or outer side, *2 acyl side, *3 side chain or, on linkers, in order; H or OH if unused. Where a SMILES comes first, the peptide text is derived from it. [ ]: non-standard residue; d: D form. X1 = O=C(Cc1cccc(/N=N/c2cccc(CN[*:1])c2)c1)[*:2]

Tests used:
PD-1/PD-L1 = conditions: read-out: IC50, PD-1/PD-L1 inhibition of BMS-1; cited from earlier work
Source text: Photo-switchable peptides that have the potential to be switched “on” and “off” through structural changes, present an opportunity for externally controlled immune checkpoint inhibitors.

[1] = test system: PD-1/PD-L1 interaction between Jurkat-Lucia TCR-hPD-1 and Raji-APC PD-L1 cells; test: PD-1/PD-L1 immune checkpoint blockade cell-based assay (InvivoGen), luciferase read-out; set-up: species or system human; conditions: Jurkat/Raji co-culture, 6 h at 37 °C, luminescence; 1 tested as cis isomer (irradiated at 365 nm); triplicate; brackets = 95% CI
Experimental: Fig. 3 (A) HTRF assay with PD-1/PD-L1 and peptides CLP003, cis1 And trans1. (B) PD-1/PD-L1 immune checkpoint blockade assay (Invivogen). Increased luminescence implies PD-1/PD-L1 inhibition between modified Jurkat and Raji cells. Errors are SEM, performed in triplicate. Representative examples of n = 3.
There was concern that during the cellular assay incubation at 37 °C may result in the azobenzene modified peptide relaxing back to the trans isomer. To determine whether 1 was thermally stable to continue with cellular assays, 1 was incubated at 37 °C for 8 h after irradiation at 365 nm for 15 minutes in buffer. […] To explore the activity of 1 in a cellular context, an immune checkpoint blockade assay was performed. The cell-based assay (InvivoGen) consists of Jurkat T cells that are engineered to express luciferase via T cell receptor (TCR) signalling and Raji cells engineered to express PD-L1 on the cell surface. If PD-L1 is bound to PD-1, the luciferase expression is inhibited. […] As such, luciferase activity directly correlates to the PD-1/PD-L1 interaction, measured by luminescence following luciferin addition. […]
The assay was performed following the manufacturer’s protocol. […] The plate was read using a CLARIOstar (BMG Labtech) microplate reader and used following manufacturer’s protocols, reading luminescence at a 4 s start time and 0.1 s […]

PD-1/PD-L1 interaction = biological target: T1, PD-1/PD-L1 interaction (Homo sapiens, UniProt Q9NZQ7); test: PD-1/PD-L1 HTRF binding assay (Cisbio); conditions: for IC50: HTRF, 1 h at room temperature, three parameter logistic fit, brackets = 95% confidence interval, read-out: IC50, inhibition of PD-1/PD-L1 (HTRF); for IC50 / Alanine scan of CLP003, inhibition of PD-1/PD-L1 (HTRF) at single concentration: triplicate; for Alanine scan of CLP003, inhibition of PD-1/PD-L1 (HTRF) at single concentration: peptides screened at 1 mM in europium detection buffer, representative of n = 3
T1 construct: purchased Cisbio
Experimental: All peptides were screened at 1 mM in europium detection buffer, BMS-1 (10 μM) was the control, the positive control contained tagged PD-L1 and tagged PD-1, the negative control contained tagged PD-L1 only. Errors are SEM, performed in triplicate. Representative example of n = 3. (B) Example azobenzene modified peptide, peptide 1, predicted to be unstructured in the trans isomer and a turn motif in the cis isomer. Structures predicted with RFAllAtom and Maestro. The arrows between residues in the cis conformation implies the N to C direction. (C) The analytical HPLC traces (254 nm) showing pre-irradiated (red), irradiated at 365 nm for 20 min (blue) and a co-injection of the two samples (green). (D) UV-Vis spectra of 1. […] Post irradiation, and after up to 6 hours in the dark characteristic maxima for the cis isomer at 450 nm is observed. (E) Absorbance at 330 nm over 10 cycles of photoisomerization of peptide 1 after 20 min irradiation at 365 nm, and then isomerisation for 20 min exposed to white light. […]
6. PD-1/PD-L1 HTRF binding assay
This assay was purchased from CisBio and was performed following the manufacturer’s protocol. Tag1-PD-L1 and Tag2-PD-1 was diluted 40-fold from the stock solution with PPI-Europium detection buffer. Anti-Tag1 Eu Cryptate reagent and Anti-Tag2 XL665 antibody was diluted 50-fold from the stock solution with PPI-Europium detection buffer. HTRF 96-well low volume white plate was used. The samples were made to the desired concentration and 2 µL was pipetted into the well. The 4 µL of Tag-1-PD-L1 solution (25 nM) was added, followed by 4 µL of Tag2-PD-1 solution (250 nM). 1X Anti-Tag1 Eu Cryptate reagent solution (25 nM|) and 1X Anti-Tag2 XL665 antibody solution (250 nM) were pre-mixed prior to dispensing 10 µL into the well, for a total volume of 20 µL. The plate was sealed and incubated for 1 hour at room temperature. Samples were analysed in triplicate. Once incubated, the plate was read using a CLARIOstar (BMG Labtech) microplate reader following manufacturer’s protocols for time resolved fluorescence (excitation filter EX-TR, emission filters 620 (10) nm, 665 (10) nm, dichoric mirror LP-TR, integration delay (lag time) 60 µs, integration time 400 µs, number of flashes 200, gain for white plate 2500).
The emission ratio was calculated for each well was calculated with the following equation:
Ratio = 665 nm Intensity […]
The “specific signal” (ΔR) is obtained by subtracting the background from the signal of each […]
∆R = RatioSample ‒ Ratiobackground […]
interaction. The data was fit to a three parameter logistic regression model with resulting R2 […]
On the day of analysis Raji-APC-nPD-L1 cell suspension ~100,000
(90 µL) was added to a 96 well plate containing test sample (1.8 µL), followed by Jurkat-Lucia TCR-hPD-1 cell suspension of ~200,000 (90 µL). The plate was incubated at 37 °C in a CO2 incubator for 6 hours. The co-cultured supernatant was transferred to 96-well clear bottomed […]
white plate. […]

PD-L1 = conditions: cited from earlier work
Source text: To determine where to insert AMPP, alanine scanning mutagenesis highlighted which amino acids were essential for inhibition using a homogenous time-resolved fluorescence (HTRF) binding assay (Cisbio).[38] From this Tyr5 and Trp7 were highlighted as being […] for inhibition (Fig. 2A). […] Photo-switchable peptides that have the potential to be switched “on” and “off” through structural changes, present an opportunity for externally controlled immune checkpoint inhibitors.

[2] = Thermal stability of 1 at 37 °C, analytical HPLC; format: physicochemical; conditions: after irradiation at 365 nm for 15 min, 1 mg/mL in IMDM with 10% FBS, Pen-Strep and Normocin, analytical HPLC every hour
Experimental: There was concern that during the cellular assay incubation at 37 °C may result in the azobenzene modified peptide relaxing back to the trans isomer. To determine whether 1 was thermally stable to continue with cellular assays, 1 was incubated at 37 °C for 8 h after irradiation at 365 nm for 15 minutes in buffer. […] To explore the activity of 1 in a cellular context, an immune checkpoint blockade assay was performed. The cell-based assay (InvivoGen) consists of Jurkat T cells that are engineered to express luciferase via T cell receptor (TCR) signalling and Raji cells engineered to express PD-L1 on the cell surface. If PD-L1 is bound to PD-1, the luciferase expression is inhibited. If the PD-1/PD-L1 interaction is inhibited, TCR signalling causes luciferase expression. As such, luciferase activity directly correlates to the PD-1/PD-L1 interaction, measured by luminescence following luciferin addition. […]
Figure 6 a) The analytical HPLC traces of 6 reading at 214 nm top: after irradiation at 365 nm for 20 minutes showing predominantly the cis isomer (74:26) bottom: after being exposed for 20 minutes of ambient light showing predominantly the […]
This assay was purchased from CisBio and was performed following the manufacturer’s protocol. […] Samples were analysed in triplicate. […]
The emission ratio was calculated for each well was calculated with the following equation: […]

T1 sequence (Q9NZQ7 19-238 limits assumed): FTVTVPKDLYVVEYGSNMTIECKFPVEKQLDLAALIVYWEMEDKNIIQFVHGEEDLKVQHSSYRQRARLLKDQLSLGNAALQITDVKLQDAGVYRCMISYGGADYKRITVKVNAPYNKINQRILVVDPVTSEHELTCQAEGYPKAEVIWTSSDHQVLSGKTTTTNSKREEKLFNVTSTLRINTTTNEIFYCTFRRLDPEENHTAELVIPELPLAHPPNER

EC50 [1]	IC50 (PD-1/PD-L1 interaction)	Alanine scan of CLP003, inhibition of PD-1/PD-L1 (HTRF) at single concentration (PD-1/PD-L1 interaction)	Compound	other results
3990 nM	–	–	COc1cc(OCc2cccc(-c3ccccc3)c2C)cc(OC)c1CN1CCCC[C@H]1C(=O)O [BMS-1, reference compound]	IC50 (PD-1/PD-L1): 76 nM
–	4680 nM	–	CC(=O)N[C@@H](Cc1c[nH]c2ccccc12)C(=O)N[C@@H](Cc1c[nH]cn1)C(=O)N[C@@H](Cc1ccccc1)C(=O)N[C@@H](CO)C(=O)N[C@@H](Cc1ccc(O)cc1)C(=O)N[C@@H](CC(N)=O)C(=O)N[C@@H](Cc1c[nH]c2ccccc12)C(=O)N[C@@H](CCCNC(=N)N)C(=O)N[C@@H](Cc1c[nH]c2ccccc12)C(=O)N[C@@H](CC(C)C)C(=O)N1CCC[C@H]1C(=O)N1CCC[C@H]1C(N)=O [CLP003, reference compound] (Ac-WHFSYNWRWLPP-NH2)	Kd (PD-L1): 117 ± 80 nM
–	25 nM	inhibiting PD-1/PD-L1	CC(=O)N[C@@H](Cc1c[nH]c2ccccc12)C(=O)N[C@@H](Cc1c[nH]cn1)C(=O)N[C@@H](Cc1ccccc1)C(=O)N[C@@H](CO)C(=O)N[C@@H](Cc1ccc(O)cc1)C(=O)N[C@@H](CC(N)=O)C(=O)N[C@@H](C)C(=O)N[C@@H](CCCNC(=N)N)C(=O)N[C@@H](Cc1c[nH]c2ccccc12)C(=O)N[C@@H](CC(C)C)C(=O)N1CCC[C@H]1C(=O)N1CCC[C@H]1C(N)=O [W7A] (Ac-WHFSYNARWLPP-NH2)	–
–	52 nM	inhibiting PD-1/PD-L1	CC(=O)N[C@@H](Cc1c[nH]c2ccccc12)C(=O)N[C@@H](Cc1c[nH]cn1)C(=O)N[C@@H](Cc1ccccc1)C(=O)N[C@@H](CO)C(=O)N[C@@H](C)C(=O)N[C@@H](CC(N)=O)C(=O)N[C@@H](Cc1c[nH]c2ccccc12)C(=O)N[C@@H](CCCNC(=N)N)C(=O)N[C@@H](Cc1c[nH]c2ccccc12)C(=O)N[C@@H](CC(C)C)C(=O)N1CCC[C@H]1C(=O)N1CCC[C@H]1C(N)=O [Y5A] (Ac-WHFSANWRWLPP-NH2)	–
5580 nM	–	–	CC(=O)N[C@@H](Cc1c[nH]c2ccccc12)C(=O)N[C@@H](Cc1c[nH]cn1)C(=O)N[C@@H](Cc1ccccc1)C(=O)N[C@@H](CO)C(=O)N[C@@H](Cc1ccc(O)cc1)C(=O)N[C@@H](CC(N)=O)C(=O)NCc1cccc(/N=N/c2cccc(CC(=O)N[C@@H](CCCNC(=N)N)C(=O)N[C@@H](Cc3c[nH]c4ccccc34)C(=O)N[C@@H](CC(C)C)C(=O)N3CCC[C@H]3C(=O)N3CCC[C@H]3C(N)=O)c2)c1 [compound 1] (Ac-WHFSYN[X1]RWLPP-NH2)	Inhibition of PD-1/PD-L1 (HTRF), trans isomer (PD-1/PD-L1 interaction; sample left in the dark (trans isomer), at up to 100 μM, detection buffer with 5% DMSO): no appreciable inhibition; Thermal stability at 37 °C over 8 h (degradation / isomer state) [2]: no degradation while remaining predominantly the cis isomer; also recorded: no observable change
